{
  "source": "patent US20080292726A1",
  "about": "“[…] COMPOSITIONS AND METHODS OF THEIR USE” (priority 2007, published 2008)",
  "origin": "cited, not measured here",
  "test_system": "mouse model of uveitis",
  "settings": "systemically administered, subcutaneously injected into the neck",
  "data": [
    {"smiles": "O=[N+]([O-])[O-].O=[N+]([O-])[O-].O=[N+]([O-])[O-].[Ga+3]", "note": "[gallium nitrate]", "values": [
      {"measurement": "efficacy in a mouse model of uveitis", "value": "effective"}
    ]}
  ]
}
